From ChEMBL document CHEMBL1201862, “PubChem BioAssay data set” (2004)
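A five-concentration, 48-hour dose response in 96-well plates underlies each endpoint, interpolated linearly between surrounding concentrations. Abbreviation: GI50, concentration required for 50% inhibition of growth.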 The source made the active and inactive calls. Rule as the data show it: active = GI50 up to about 1.1 µM and inactive = higher.

Experiments:
Experiment in all cases: NCI tumour cell line growth inhibition, 48 h
[1] = test system: RPMI-8226
[2] = test system: MOLT-4
[3] = test system: NCI-H522
[4] = test system: MDA-N
[5] = test system: DU-145
[6] = test system: SK-MEL-5
[7] = test system: IGROV-1
[8] = test system: 786-0
[9] = test system: OVCAR-4
[10] = test system: SK-OV-3
[11] = test system: SW-620
[12] = test system: Malme-3M
[13] = test system: BT-549
[14] = test system: NCI-H23
[15] = test system: TK-10
[16] = test system: RXF 393
[17] = test system: NCI-H226
[18] = test system: SK-MEL-28
[19] = test system: HOP-92

Compound	GI50 [1]	GI50 [2]	GI50 [3]	GI50 [4]	GI50 [5]	GI50 [6]	GI50 [7]	GI50 [8]	GI50 [9]	GI50 [10]	GI50 [11]	GI50 [12]	GI50 [13]	GI50 [14]	GI50 [15]	GI50 [16]	GI50 [17]	GI50 [18]	GI50 [19]
NC1=CN(Cc2ccccc2)C2=N/C(=C\c3ccccc3O)C(=O)N12	75.7 µM (inactive)	96.4 µM (inactive)	> 100 µM (inactive)	> 100 µM (inactive)	> 100 µM (inactive)	90.8 µM (inactive)	> 100 µM (inactive)	> 100 µM (inactive)	> 100 µM (inactive)	> 100 µM (inactive)	> 100 µM (inactive)	> 100 µM (inactive)	> 100 µM (inactive)	> 100 µM (inactive)	> 100 µM (inactive)	> 100 µM (inactive)	> 100 µM (inactive)	> 100 µM (inactive)	> 100 µM (inactive)
Oc1cccc(-c2cn3cc(C(F)(F)F)ccc3n2)c1	–	17.1 µM (inactive)	13.5 µM (inactive)	35.7 µM (inactive)	18.6 µM (inactive)	22.5 µM (inactive)	20.4 µM (inactive)	54.6 µM (inactive)	22.1 µM (inactive)	33.4 µM (inactive)	67.8 µM (inactive)	27.9 µM (inactive)	37.2 µM (inactive)	42.7 µM (inactive)	22.5 µM (inactive)	13.8 µM (inactive)	46.9 µM (inactive)	61.9 µM (inactive)	55.2 µM (inactive)
O=C1CC(c2ccc(Cl)cc2)C2(C(=O)NC(=O)NC2=O)C(c2ccc(Cl)cc2)C1 (centres undefined)	10.3 µM (inactive)	0.0075 µM (active)	17.5 µM (inactive)	19.8 µM (inactive)	21.7 µM (inactive)	14.5 µM (inactive)	18 µM (inactive)	25.1 µM (inactive)	38.5 µM (inactive)	–	26.2 µM (inactive)	17.1 µM (inactive)	30.7 µM (inactive)	34 µM (inactive)	54.8 µM (inactive)	15 µM (inactive)	16 µM (inactive)	18.2 µM (inactive)	14.7 µM (inactive)
CC(=O)N1C(OCc2ccccc2)CCN1c1ccccc1 (centres undefined)	> 10 µM (inactive)	> 10 µM (inactive)	> 10 µM (inactive)	> 10 µM (inactive)	> 10 µM (inactive)	> 10 µM (inactive)	> 10 µM (inactive)	> 10 µM (inactive)	> 10 µM (inactive)	> 10 µM (inactive)	> 10 µM (inactive)	> 10 µM (inactive)	> 10 µM (inactive)	> 10 µM (inactive)	> 10 µM (inactive)	> 10 µM (inactive)	> 10 µM (inactive)	> 10 µM (inactive)	3.29 µM (inactive)
O=C(O)CCC(=O)c1ccc2ccc3cccc4ccc1c2c34	63 µM (inactive)	60.3 µM (inactive)	83.8 µM (inactive)	> 100 µM (inactive)	> 100 µM (inactive)	58.6 µM (inactive)	70.3 µM (inactive)	68.9 µM (inactive)	> 100 µM (inactive)	> 100 µM (inactive)	59.2 µM (inactive)	> 100 µM (inactive)	63.2 µM (inactive)	> 100 µM (inactive)	49.1 µM (inactive)	46.5 µM (inactive)	49 µM (inactive)	87.3 µM (inactive)	> 100 µM (inactive)
COC1=C(Cl)C(=O)c2c(O)ccc(O)c2C1=O	0.272 µM (active)	0.0372 µM (active)	0.119 µM (active)	2.2 µM (inactive)	2.38 µM (inactive)	1.4 µM (inactive)	1.7 µM (inactive)	0.287 µM (active)	2.07 µM (inactive)	16 µM (inactive)	0.1 µM (active)	0.478 µM (active)	1.82 µM (inactive)	1.91 µM (inactive)	1.05 µM (active)	1.3 µM (inactive)	11.2 µM (inactive)	2.58 µM (inactive)	1.78 µM (inactive)
Cc1cccc(C)c1Nc1nc(C)c(C(=O)CC(=O)C(=O)Nc2c(C(C)C)cccc2C(C)C)s1	56.8 µM (inactive)	72.9 µM (inactive)	> 100 µM (inactive)	> 100 µM (inactive)	> 100 µM (inactive)	> 100 µM (inactive)	> 100 µM (inactive)	> 100 µM (inactive)	> 100 µM (inactive)	89.7 µM (inactive)	> 100 µM (inactive)	–	> 100 µM (inactive)	> 100 µM (inactive)	> 100 µM (inactive)	43.8 µM (inactive)	> 100 µM (inactive)	> 100 µM (inactive)	43.4 µM (inactive)
C=CCOc1ccc(C(=N/NC(=O)c2ccccc2)/N=N/c2ccc([N+](=O)[O-])cc2)cc1OC	–	92.5 µM (inactive)	> 100 µM (inactive)	> 100 µM (inactive)	77.4 µM (inactive)	76.6 µM (inactive)	> 100 µM (inactive)	> 100 µM (inactive)	> 100 µM (inactive)	–	> 100 µM (inactive)	> 100 µM (inactive)	> 100 µM (inactive)	> 100 µM (inactive)	> 100 µM (inactive)	> 100 µM (inactive)	> 100 µM (inactive)	> 100 µM (inactive)	18.6 µM (inactive)
CC1C(c2ccccc2)NC(c2ccccc2)CC1(N)C#N (centres undefined)	–	> 100 µM (inactive)	> 100 µM (inactive)	> 100 µM (inactive)	> 100 µM (inactive)	> 100 µM (inactive)	> 100 µM (inactive)	> 100 µM (inactive)	> 100 µM (inactive)	> 100 µM (inactive)	> 100 µM (inactive)	–	> 100 µM (inactive)	> 100 µM (inactive)	> 100 µM (inactive)	> 100 µM (inactive)	> 100 µM (inactive)	> 100 µM (inactive)	95.1 µM (inactive)
C=C1CC2[C@H](C)C(=O)CCC2(C)C2=C1C1CCC(C(C)CCC(=C)C(C)C(=O)O)C1(C)CC2=O (some centres undefined)	–	16.8 µM (inactive)	47.1 µM (inactive)	95.3 µM (inactive)	53.1 µM (inactive)	31.3 µM (inactive)	56.9 µM (inactive)	20.4 µM (inactive)	48.4 µM (inactive)	89.5 µM (inactive)	61.7 µM (inactive)	> 100 µM (inactive)	37.2 µM (inactive)	41.9 µM (inactive)	44.9 µM (inactive)	30.1 µM (inactive)	82 µM (inactive)	> 100 µM (inactive)	29.7 µM (inactive)
COC(=O)c1cc(C#N)[nH]c1-c1cccs1	36.6 µM (inactive)	> 100 µM (inactive)	33.9 µM (inactive)	> 100 µM (inactive)	86.9 µM (inactive)	–	–	> 100 µM (inactive)	> 100 µM (inactive)	> 100 µM (inactive)	> 100 µM (inactive)	–	31.8 µM (inactive)	58.1 µM (inactive)	–	22.6 µM (inactive)	> 100 µM (inactive)	> 100 µM (inactive)	30.8 µM (inactive)
O=C1CN(c2ccccc2)Cc2nc(Cl)ccc2N1	> 100 µM (inactive)	> 100 µM (inactive)	> 100 µM (inactive)	> 100 µM (inactive)	> 100 µM (inactive)	> 100 µM (inactive)	> 100 µM (inactive)	> 100 µM (inactive)	> 100 µM (inactive)	> 100 µM (inactive)	> 100 µM (inactive)	58.1 µM (inactive)	> 100 µM (inactive)	–	> 100 µM (inactive)	25.6 µM (inactive)	> 100 µM (inactive)	> 100 µM (inactive)	57.4 µM (inactive)
CC1(C)CC[C@]2(C(=O)O)CC[C@]3(C)C(=CC[C@@H]4[C@@]5(C)CC[C@H](OC6OC(CO)C(O)C(O)C6O)C(C)(C)[C@@H]5CC[C@]43C)[C@@H]2C1 (some centres undefined)	2.61 µM (inactive)	1.85 µM (inactive)	1.45 µM (inactive)	1.86 µM (inactive)	1.98 µM (inactive)	1.93 µM (inactive)	1.58 µM (inactive)	1.77 µM (inactive)	1.61 µM (inactive)	1.75 µM (inactive)	1.82 µM (inactive)	1.67 µM (inactive)	1.31 µM (inactive)	1.99 µM (inactive)	–	1.98 µM (inactive)	1.77 µM (inactive)	1.99 µM (inactive)	1.68 µM (inactive)
COC(=O)c1ccccc1C1CN=NC12Cc1ccc(C)c(C)c1C2=O (centres undefined)	–	26.1 µM (inactive)	6.84 µM (inactive)	77.4 µM (inactive)	> 100 µM (inactive)	21.6 µM (inactive)	> 100 µM (inactive)	> 100 µM (inactive)	31.6 µM (inactive)	> 100 µM (inactive)	> 100 µM (inactive)	> 100 µM (inactive)	> 100 µM (inactive)	19.1 µM (inactive)	56.2 µM (inactive)	76.4 µM (inactive)	> 100 µM (inactive)	> 100 µM (inactive)	28.2 µM (inactive)
COP(=O)(OC)C1=c2c(C)noc2=C2C=COC2C1=O (centres undefined)	> 100 µM (inactive)	> 100 µM (inactive)	> 100 µM (inactive)	> 100 µM (inactive)	> 100 µM (inactive)	> 100 µM (inactive)	> 100 µM (inactive)	> 100 µM (inactive)	> 100 µM (inactive)	> 100 µM (inactive)	> 100 µM (inactive)	> 100 µM (inactive)	> 100 µM (inactive)	> 100 µM (inactive)	> 100 µM (inactive)	> 100 µM (inactive)	> 100 µM (inactive)	–	63.4 µM (inactive)
